{"source": "patent US20260070895A1", "about": "“CRYSTALLINE FORMS” (QUIMATRYX, S.L., priority 2022, published 2026)", "test": "Photostability at solid state (chemical purity by HPLC after illumination)", "type": "physicochemical", "settings": "solid-state; for degradation (in words): up to 171 hours", "experimental": "The method for determining purity by HPLC—used throughout these examples—used the following parameters:\nThe photostability of novel crystalline forms of QTX125 was assessed at solid state and in solution. Where ‘forced illumination’ conditions were used, samples were illuminated at 12 Klux/hour and 2.8 UV W/m^2/hour. Samples were stored at a temperature of 30° C. Following incubation, the chemical purity of QTX125 was measured by HPLC.\nThe following index is provided to aid navigation of the data presented in Tables 3.1.1 to 3.3.6: • 3.1.x—Assessment of the photostability of QTX125 Form 2. • 3.2.x—Assessment of the photostability of amorphous QTX125. • 3.3.x—Assessment of the photostability of the QTX125 1:2 L-Lysine adduct. • 3.x.1—Samples (at solid state) stored in unsealed clear glass bottles, subject to forced illumination. • 3.x.2—Samples (at solid state) sealed under nitrogen in clear glass bottles, subject to forced illumination. • 3.x.3—Samples (at solid state) sealed under nitrogen in amber glass bottles, illuminated under ambient laboratory conditions • 3.x.4—Samples (at solid state) sealed under nitrogen in amber glass bottles, subject to forced illumination. • 3.x.5—Samples (in solution) sealed under nitrogen in amber glass bottles, illuminated under ambient laboratory conditions. • 3.x.6—Samples (in solution) sealed under nitrogen in amber glass bottles, subject to forced illumination.", "key": {"[1]": {"settings": "sealed under nitrogen in amber glass bottles, ambient laboratory conditions, 3 hours"}, "[2]": {"settings": "sealed under nitrogen in amber glass bottles, ambient laboratory conditions, 26 hours"}, "[3]": {"settings": "sealed under nitrogen in amber glass bottles, ambient laboratory conditions, 74 hours"}, "[4]": {"settings": "sealed under nitrogen in amber glass bottles, ambient laboratory conditions, 171 hours"}, "[5]": {"settings": "sealed under nitrogen in amber glass bottles, ambient laboratory conditions, 171 hours, listed as Form 2"}, "[6]": {"settings": "sealed under nitrogen in amber glass bottles, forced illumination, 0 hours"}, "[7]": {"settings": "sealed under nitrogen in amber glass bottles, forced illumination, 3 hours"}, "[8]": {"settings": "sealed under nitrogen in amber glass bottles, forced illumination, 26 hours"}, "[9]": {"settings": "sealed under nitrogen in amber glass bottles, forced illumination, 74 hours"}, "[10]": {"settings": "sealed under nitrogen in amber glass bottles, forced illumination, 171 hours"}, "[11]": {"settings": "sealed under nitrogen in amber glass bottles, forced illumination, 171 hours, listed as Form 2"}, "[12]": {"settings": "sealed under nitrogen in clear glass bottles, forced illumination"}, "[13]": {"settings": "sealed under nitrogen in clear glass bottles, forced illumination, 0 hours"}, "[14]": {"settings": "sealed under nitrogen in clear glass bottles, forced illumination, 3 hours"}, "[15]": {"settings": "sealed under nitrogen in clear glass bottles, forced illumination, 26 hours"}, "[16]": {"settings": "sealed under nitrogen in clear glass bottles, forced illumination, 74 hours"}, "[17]": {"settings": "sealed under nitrogen in clear glass bottles, forced illumination, 171 hours"}, "[18]": {"settings": "unsealed clear glass bottles, forced illumination"}, "[19]": {"settings": "unsealed clear glass bottles, forced illumination, 0 hours"}, "[20]": {"settings": "unsealed clear glass bottles, forced illumination, 3 hours"}, "[21]": {"settings": "unsealed clear glass bottles, forced illumination, 26 hours"}, "[22]": {"settings": "unsealed clear glass bottles, forced illumination, 74 hours"}, "[23]": {"settings": "unsealed clear glass bottles, forced illumination, 171 hours"}}, "data": [{"molecule": "O=C(NO)c1ccc(CNC(=O)c2[nH]c(-c3ccc(O)cc3)cc2-c2ccoc2)cc1", "note": "[QTX125 Form 2, 3-(3-Furyl)-N-{4-[(hydroxyamino)carbonyl]benzyl}-5-(4-hydroxyphenyl)-1H-pyrrole-2-carboxamide]", "values": [{"measurement": "HPLC peak area, QTX125 RRT 1.00", "setting": "[1]", "result": 97.35, "unit": "%"}, {"measurement": "HPLC peak area, RRT 1.04", "setting": "[1]", "result": 1.06, "unit": "%"}, {"measurement": "HPLC peak area, QTX125 RRT 1.00", "setting": "[2]", "result": 98.11, "unit": "%"}, {"measurement": "HPLC peak area, RRT 1.04", "setting": "[2]", "result": 1.07, "unit": "%"}, {"measurement": "HPLC peak area, QTX125 RRT 1.00", "setting": "[3]", "result": 98.83, "unit": "%"}, {"measurement": "HPLC peak area, RRT 1.04", "setting": "[3]", "result": 0.55, "unit": "%"}, {"measurement": "HPLC peak area, QTX125 RRT 1.00", "setting": "[4]", "result": 98.12, "unit": "%"}, {"measurement": "HPLC peak area, RRT 1.04", "setting": "[4]", "result": 1.21, "unit": "%"}, {"measurement": "HPLC peak area, QTX125 RRT 1.00", "setting": "[5]", "result": 98.12, "unit": "%"}, {"measurement": "HPLC peak area, RRT 1.04", "setting": "[5]", "result": 1.21, "unit": "%"}, {"measurement": "degradation (in words)", "setting": "sealed under nitrogen in amber glass bottles, ambient laboratory conditions", "result": "little evidence of degradation"}, {"measurement": "HPLC peak area, QTX125 RRT 1.00", "setting": "[6]", "result": 98.21, "unit": "%"}, {"measurement": "HPLC peak area, RRT 1.04", "setting": "[6]", "result": 0.98, "unit": "%"}, {"measurement": "HPLC peak area, QTX125 RRT 1.00", "setting": "[7]", "result": 98.23, "unit": "%"}, {"measurement": "HPLC peak area, RRT 1.04", "setting": "[7]", "result": 0.99, "unit": "%"}, {"measurement": "HPLC peak area, QTX125 RRT 1.00", "setting": "[8]", "result": 97.82, "unit": "%"}, {"measurement": "HPLC peak area, RRT 1.04", "setting": "[8]", "result": 1.22, "unit": "%"}, {"measurement": "HPLC peak area, QTX125 RRT 1.00", "setting": "[9]", "result": 97.70, "unit": "%"}, {"measurement": "HPLC peak area, RRT 1.04", "setting": "[9]", "result": 1.06, "unit": "%"}, {"measurement": "HPLC peak area, QTX125 RRT 1.00", "setting": "[10]", "result": 95.40, "unit": "%"}, {"measurement": "HPLC peak area, RRT 1.04", "setting": "[10]", "result": 2.55, "unit": "%"}, {"measurement": "HPLC peak area, RRT 1.12", "setting": "[10]", "result": 0.28, "unit": "%"}, {"measurement": "HPLC peak area, QTX125 RRT 1.00", "setting": "[11]", "result": 95.40, "unit": "%"}, {"measurement": "HPLC peak area, RRT 1.04", "setting": "[11]", "result": 2.55, "unit": "%"}, {"measurement": "HPLC peak area, RRT 1.12", "setting": "[11]", "result": 0.28, "unit": "%"}, {"measurement": "degradation (in words)", "setting": "sealed under nitrogen in amber glass bottles, forced illumination", "result": "degrade slightly"}, {"measurement": "colour change of the solid material", "setting": "[12]", "result": "change in colour from off white to dark green"}, {"measurement": "HPLC peak area, QTX125 RRT 1.00", "setting": "[13]", "result": 98.21, "unit": "%"}, {"measurement": "HPLC peak area, RRT 1.04", "setting": "[13]", "result": 0.98, "unit": "%"}, {"measurement": "HPLC peak area, QTX125 RRT 1.00", "setting": "[14]", "result": 97.78, "unit": "%"}, {"measurement": "HPLC peak area, RRT 1.04", "setting": "[14]", "result": 1.29, "unit": "%"}, {"measurement": "HPLC peak area, QTX125 RRT 1.00", "setting": "[15]", "result": 96.16, "unit": "%"}, {"measurement": "HPLC peak area, RRT 1.04", "setting": "[15]", "result": 2.16, "unit": "%"}, {"measurement": "HPLC peak area, QTX125 RRT 1.00", "setting": "[16]", "result": 84.98, "unit": "%"}, {"measurement": "HPLC peak area, RRT 1.04", "setting": "[16]", "result": 5.99, "unit": "%"}, {"measurement": "HPLC peak area, RRT 1.08", "setting": "[16]", "result": 1.24, "unit": "%"}, {"measurement": "HPLC peak area, RRT 1.11", "setting": "[16]", "result": 0.52, "unit": "%"}, {"measurement": "HPLC peak area, RRT 1.20", "setting": "[16]", "result": 0.66, "unit": "%"}, {"measurement": "HPLC peak area, QTX125 RRT 1.00", "setting": "[17]", "result": 82.33, "unit": "%"}, {"measurement": "HPLC peak area, RRT 1.04", "setting": "[17]", "result": 9.95, "unit": "%"}, {"measurement": "HPLC peak area, RRT 1.08", "setting": "[17]", "result": 0.41, "unit": "%"}, {"measurement": "HPLC peak area, RRT 1.11", "setting": "[17]", "result": 0.86, "unit": "%"}, {"measurement": "HPLC peak area, RRT 1.20", "setting": "[17]", "result": 0.22, "unit": "%"}, {"measurement": "degradation (in words)", "setting": "[12]", "result": "degrade to two principal components"}, {"measurement": "colour change of the solid material", "setting": "[18]", "result": "change in colour from off white to dark green"}, {"measurement": "HPLC peak area, QTX125 RRT 1.00", "setting": "[19]", "result": 98.21, "unit": "%"}, {"measurement": "HPLC peak area, RRT 1.04", "setting": "[19]", "result": 0.98, "unit": "%"}, {"measurement": "HPLC peak area, QTX125 RRT 1.00", "setting": "[20]", "result": 97.68, "unit": "%"}, {"measurement": "HPLC peak area, RRT 1.04", "setting": "[20]", "result": 1.38, "unit": "%"}, {"measurement": "HPLC peak area, QTX125 RRT 1.00", "setting": "[21]", "result": 95.59, "unit": "%"}, {"measurement": "HPLC peak area, RRT 1.04", "setting": "[21]", "result": 2.38, "unit": "%"}, {"measurement": "HPLC peak area, QTX125 RRT 1.00", "setting": "[22]", "result": 90.53, "unit": "%"}, {"measurement": "HPLC peak area, RRT 1.04", "setting": "[22]", "result": 4.90, "unit": "%"}, {"measurement": "HPLC peak area, QTX125 RRT 1.00", "setting": "[23]", "result": 83.78, "unit": "%"}, {"measurement": "HPLC peak area, RRT 1.04", "setting": "[23]", "result": 9.15, "unit": "%"}, {"measurement": "HPLC peak area, RRT 1.12", "setting": "[23]", "result": 0.52, "unit": "%"}, {"measurement": "degradation (in words)", "setting": "[18]", "result": "degrade to two principal components"}]}]}
